The source made the active and inactive calls. The rule behind the calls is not given here.

This passage reports inhibition results from ChEMBL document CHEMBL4806968, “Hipk inhibitors and methods of use thereof” (2020).

Experiment [1] addresses Tyrosine-protein kinase ABL2 (Homo sapiens) (UniProt P42684). Nature of the experiment: Inhibition of ARG (unknown origin) at 0.5 uM relative to control.
Experiment [2] has as its target Mitogen-activated protein kinase kinase kinase kinase 5 (Homo sapiens) (UniProt Q9Y4K4). The experiment in a line: Inhibition of MAP4K5 (unknown origin) at 0.5 uM relative to control.
The target of experiment [3] is Vascular endothelial growth factor receptor 2 (Homo sapiens) (UniProt P35968). Nature of the experiment: Inhibition of KDR (unknown origin) at 0.5 uM relative to control.
The target of experiment [4] is Ephrin type-A receptor 1 (Homo sapiens) (UniProt P21709). The experiment in a line: Inhibition of EPHA1 (unknown origin) at 0.5 uM relative to control.
Experiment [5] has as its target T1, Tyrosine-protein kinase Mer (Homo sapiens) (UniProt Q12866).
T1 sequence (whole entry): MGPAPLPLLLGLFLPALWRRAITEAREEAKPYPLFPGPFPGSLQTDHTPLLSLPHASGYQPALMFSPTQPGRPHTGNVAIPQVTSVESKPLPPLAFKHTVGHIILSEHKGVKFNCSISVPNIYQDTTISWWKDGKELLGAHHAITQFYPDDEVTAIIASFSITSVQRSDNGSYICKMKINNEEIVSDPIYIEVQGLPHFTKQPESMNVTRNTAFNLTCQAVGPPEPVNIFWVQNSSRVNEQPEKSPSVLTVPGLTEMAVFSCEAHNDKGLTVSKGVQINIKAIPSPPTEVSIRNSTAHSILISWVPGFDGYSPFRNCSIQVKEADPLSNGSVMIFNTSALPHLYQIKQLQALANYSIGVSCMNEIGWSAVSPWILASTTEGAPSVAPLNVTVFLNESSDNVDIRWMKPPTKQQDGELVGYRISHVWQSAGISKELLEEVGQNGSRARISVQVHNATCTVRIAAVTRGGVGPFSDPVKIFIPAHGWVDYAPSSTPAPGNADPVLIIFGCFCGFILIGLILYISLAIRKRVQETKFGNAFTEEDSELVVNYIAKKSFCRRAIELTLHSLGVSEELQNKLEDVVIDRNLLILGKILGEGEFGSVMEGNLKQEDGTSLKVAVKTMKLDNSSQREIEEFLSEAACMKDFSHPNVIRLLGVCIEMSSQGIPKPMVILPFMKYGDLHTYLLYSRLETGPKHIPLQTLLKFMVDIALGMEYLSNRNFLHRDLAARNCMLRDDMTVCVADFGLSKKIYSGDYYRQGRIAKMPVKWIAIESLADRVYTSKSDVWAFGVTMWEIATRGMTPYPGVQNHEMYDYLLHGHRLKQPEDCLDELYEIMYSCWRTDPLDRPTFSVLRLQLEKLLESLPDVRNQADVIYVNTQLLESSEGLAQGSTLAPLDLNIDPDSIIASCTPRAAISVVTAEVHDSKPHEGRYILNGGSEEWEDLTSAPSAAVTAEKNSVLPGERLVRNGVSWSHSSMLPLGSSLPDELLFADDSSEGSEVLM
Nature of the experiment: Inhibition of MER (unknown origin) at 0.5 uM relative to control.

The target of experiment [6] is Ephrin type-B receptor 3 (Homo sapiens) (UniProt P54753). Nature of the experiment: Inhibition of EPHB3 (unknown origin) at 0.5 uM relative to control.
Experiment [7] has as its target Vascular endothelial growth factor receptor 3 (Homo sapiens) (UniProt P35916). Nature of the experiment: Inhibition of FLT4 (unknown origin) at 0.5 uM relative to control.
Experiment [8] deals with Macrophage colony-stimulating factor 1 receptor (Homo sapiens) (UniProt P07333). The experiment in a line: Inhibition of FMS (unknown origin) at 0.5 uM relative to control.
The target in experiment [9] is RAF proto-oncogene serine/threonine-protein kinase (Homo sapiens) (UniProt P04049). Nature of the experiment: Inhibition of CRAF (unknown origin) at 0.5 uM relative to control.
Experiment [10] has as its target Serine/threonine-protein kinase TAO2 (Homo sapiens) (UniProt Q9UL54). Nature of the experiment: Inhibition of TAOK2 (unknown origin) at 0.5 uM relative to control.
The target of experiment [11] is Platelet-derived growth factor receptor alpha (Homo sapiens) (UniProt P16234). The experiment in a line: Inhibition of PDGFR-alpha (unknown origin) at 0.5 uM relative to control.
Experiment [12] deals with Eukaryotic translation initiation factor 2-alpha kinase 3 (Homo sapiens) (UniProt Q9NZJ5). The experiment in a line: Inhibition of PERK (unknown origin) at 0.5 uM relative to control.
Experiment [13] addresses Serine/threonine-protein kinase MARK1 (Homo sapiens) (UniProt Q9P0L2). The experiment in a line: Inhibition of MARK1 (unknown origin) at 0.5 uM relative to control.
The target in experiment [14] is Tyrosine-protein kinase JAK2 (Homo sapiens) (UniProt O60674). Nature of the experiment: Inhibition of JAK2 (unknown origin) at 0.5 uM relative to control.
In experiment [15] the target is Mitogen-activated protein kinase kinase kinase 10 (Homo sapiens) (UniProt Q02779). The experiment in a line: Inhibition of MLK2 (unknown origin) at 0.5 uM relative to control.
Experiment [16] has as its target Non-receptor tyrosine-protein kinase TNK1 (Homo sapiens) (UniProt Q13470). Nature of the experiment: Inhibition of TNK1 (unknown origin) at 0.5 uM relative to control.
Experiment [17] deals with Mitogen-activated protein kinase 11 (Homo sapiens) (UniProt Q15759). The experiment in a line: Inhibition of p38beta (unknown origin) at 0.5 uM relative to control.
The target in experiment [18] is SRSF protein kinase 3 (Homo sapiens) (UniProt Q9UPE1). Nature of the experiment: Inhibition of MSSK1 (unknown origin) at 0.5 uM relative to control.
In experiment [19] the target is Mitogen-activated protein kinase kinase kinase 9 (Homo sapiens) (UniProt P80192). Nature of the experiment: Inhibition of MLK1 (unknown origin) at 0.5 uM relative to control.
Experiment [20] deals with Tyrosine-protein kinase JAK1 (Homo sapiens) (UniProt P23458). The experiment in a line: Inhibition of JAK1 (unknown origin) at 0.5 uM relative to control.
Experiment [21] addresses Serine/threonine-protein kinase B-raf (Homo sapiens) (UniProt P15056). The experiment in a line: Inhibition of BRAF (unknown origin) at 0.5 uM relative to control.
The target of experiment [22] is Ephrin type-A receptor 2 (Homo sapiens) (UniProt P29317). The experiment in a line: Inhibition of EPHA2 (unknown origin) at 0.5 uM relative to control.
The target of experiment [23] is Serine/threonine-protein kinase PLK4 (Homo sapiens) (UniProt O00444). The experiment in a line: Inhibition of PLK4 (unknown origin) at 0.5 uM relative to control.
Experiment [24] deals with MAP kinase-interacting serine/threonine-protein kinase 2 (Homo sapiens) (UniProt Q9HBH9). Nature of the experiment: Inhibition of MNK2 (unknown origin) at 0.5 uM relative to control.
Experiment [25] concerns the target Tyrosine-protein kinase Lyn (Homo sapiens) (UniProt P07948). Nature of the experiment: Inhibition of LYNB (unknown origin) at 0.5 uM relative to control.
A further experiment relates to MDA-MB-231. The experiment in a line: Inhibition of FAK/pFAK protein expression in human MDA-MB-231 cells by Western blotting analysis. Format: functional, cell-based.
Experiment [26] addresses MAP kinase-interacting serine/threonine-protein kinase 1 (Homo sapiens) (UniProt Q9BUB5). The experiment in a line: Inhibition of MNK1 (unknown origin) at 0.5 uM relative to control.

Chain of Vascular endothelial growth factor receptor 2 (Homo sapiens) (P35968 whole entry): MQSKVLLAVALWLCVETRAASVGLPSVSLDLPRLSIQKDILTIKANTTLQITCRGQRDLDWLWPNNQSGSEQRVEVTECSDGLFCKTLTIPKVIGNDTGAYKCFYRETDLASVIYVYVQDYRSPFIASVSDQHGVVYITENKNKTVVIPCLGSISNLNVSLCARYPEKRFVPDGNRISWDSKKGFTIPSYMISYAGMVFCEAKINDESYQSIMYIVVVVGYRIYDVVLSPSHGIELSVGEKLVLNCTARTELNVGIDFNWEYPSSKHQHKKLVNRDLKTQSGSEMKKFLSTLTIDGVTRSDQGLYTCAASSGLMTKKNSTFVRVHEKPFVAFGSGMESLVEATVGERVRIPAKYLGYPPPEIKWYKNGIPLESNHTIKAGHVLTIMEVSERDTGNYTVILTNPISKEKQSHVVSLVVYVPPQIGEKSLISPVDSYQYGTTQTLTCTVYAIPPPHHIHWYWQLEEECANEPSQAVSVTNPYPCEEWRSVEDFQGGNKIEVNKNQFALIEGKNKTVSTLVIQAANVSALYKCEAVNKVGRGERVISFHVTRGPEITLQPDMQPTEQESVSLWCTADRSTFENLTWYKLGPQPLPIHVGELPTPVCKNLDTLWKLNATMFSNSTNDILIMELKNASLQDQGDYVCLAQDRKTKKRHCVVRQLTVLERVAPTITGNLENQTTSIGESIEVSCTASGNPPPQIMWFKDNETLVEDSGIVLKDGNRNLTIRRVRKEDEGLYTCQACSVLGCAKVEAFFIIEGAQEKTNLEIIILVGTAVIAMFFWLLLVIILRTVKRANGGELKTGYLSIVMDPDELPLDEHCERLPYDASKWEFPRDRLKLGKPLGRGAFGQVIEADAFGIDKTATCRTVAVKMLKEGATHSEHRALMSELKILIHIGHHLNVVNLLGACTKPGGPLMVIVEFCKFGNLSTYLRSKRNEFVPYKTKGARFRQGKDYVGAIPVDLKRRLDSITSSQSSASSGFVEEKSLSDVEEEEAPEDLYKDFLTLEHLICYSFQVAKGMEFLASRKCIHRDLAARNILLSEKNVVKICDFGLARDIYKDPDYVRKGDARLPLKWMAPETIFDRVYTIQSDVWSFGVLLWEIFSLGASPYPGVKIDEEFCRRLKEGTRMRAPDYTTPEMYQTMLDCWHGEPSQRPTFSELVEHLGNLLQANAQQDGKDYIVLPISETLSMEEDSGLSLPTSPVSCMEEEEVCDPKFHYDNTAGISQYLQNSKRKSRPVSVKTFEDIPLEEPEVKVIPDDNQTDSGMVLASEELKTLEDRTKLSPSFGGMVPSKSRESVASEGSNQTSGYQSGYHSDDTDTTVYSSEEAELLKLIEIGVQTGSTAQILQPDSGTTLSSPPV
Chain of Macrophage colony-stimulating factor 1 receptor (Homo sapiens) (P07333 whole entry): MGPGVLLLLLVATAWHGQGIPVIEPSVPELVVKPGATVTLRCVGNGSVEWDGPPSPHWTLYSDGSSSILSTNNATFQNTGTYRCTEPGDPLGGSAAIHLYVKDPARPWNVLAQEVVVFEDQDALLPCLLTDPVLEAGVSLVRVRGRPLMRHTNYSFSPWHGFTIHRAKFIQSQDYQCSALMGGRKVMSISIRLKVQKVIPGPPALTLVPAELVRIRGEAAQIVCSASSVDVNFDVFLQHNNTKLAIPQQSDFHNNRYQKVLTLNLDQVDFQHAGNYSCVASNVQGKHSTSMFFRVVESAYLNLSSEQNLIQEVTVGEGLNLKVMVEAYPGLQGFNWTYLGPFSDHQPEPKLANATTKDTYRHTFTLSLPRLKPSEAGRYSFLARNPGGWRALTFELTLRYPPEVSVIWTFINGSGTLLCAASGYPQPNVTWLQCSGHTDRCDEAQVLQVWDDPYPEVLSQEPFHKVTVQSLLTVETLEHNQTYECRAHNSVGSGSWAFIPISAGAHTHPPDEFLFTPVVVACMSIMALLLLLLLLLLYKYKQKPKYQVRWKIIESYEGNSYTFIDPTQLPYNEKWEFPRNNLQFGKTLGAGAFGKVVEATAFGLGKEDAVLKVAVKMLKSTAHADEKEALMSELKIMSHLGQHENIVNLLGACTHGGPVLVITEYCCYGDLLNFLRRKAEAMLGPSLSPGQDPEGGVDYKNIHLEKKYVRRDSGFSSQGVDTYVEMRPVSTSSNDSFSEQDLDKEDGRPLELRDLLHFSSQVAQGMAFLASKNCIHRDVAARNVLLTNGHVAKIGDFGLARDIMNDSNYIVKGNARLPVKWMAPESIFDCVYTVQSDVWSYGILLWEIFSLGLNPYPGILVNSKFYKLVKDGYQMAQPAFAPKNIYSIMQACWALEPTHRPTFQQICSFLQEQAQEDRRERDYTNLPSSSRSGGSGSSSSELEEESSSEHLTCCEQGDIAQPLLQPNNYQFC
Chain of RAF proto-oncogene serine/threonine-protein kinase (Homo sapiens) (P04049 whole entry): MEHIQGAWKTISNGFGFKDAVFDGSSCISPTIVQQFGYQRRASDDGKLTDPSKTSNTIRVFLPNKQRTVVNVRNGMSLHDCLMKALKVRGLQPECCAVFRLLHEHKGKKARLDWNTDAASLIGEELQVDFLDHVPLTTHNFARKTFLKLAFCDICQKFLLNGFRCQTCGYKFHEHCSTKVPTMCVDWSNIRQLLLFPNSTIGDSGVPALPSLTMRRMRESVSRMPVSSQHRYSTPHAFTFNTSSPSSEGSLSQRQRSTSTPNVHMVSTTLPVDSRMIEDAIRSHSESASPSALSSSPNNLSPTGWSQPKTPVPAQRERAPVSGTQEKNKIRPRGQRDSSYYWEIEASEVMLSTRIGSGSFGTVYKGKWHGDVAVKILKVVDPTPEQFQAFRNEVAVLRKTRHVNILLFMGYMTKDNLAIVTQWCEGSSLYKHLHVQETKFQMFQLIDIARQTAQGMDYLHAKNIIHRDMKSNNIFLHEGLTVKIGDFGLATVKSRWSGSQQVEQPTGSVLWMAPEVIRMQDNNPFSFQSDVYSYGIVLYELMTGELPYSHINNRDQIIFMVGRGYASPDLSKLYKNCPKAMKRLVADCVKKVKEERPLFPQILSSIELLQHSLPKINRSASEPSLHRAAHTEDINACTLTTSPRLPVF
Chain of Ephrin type-A receptor 1 (Homo sapiens) (P21709 whole entry): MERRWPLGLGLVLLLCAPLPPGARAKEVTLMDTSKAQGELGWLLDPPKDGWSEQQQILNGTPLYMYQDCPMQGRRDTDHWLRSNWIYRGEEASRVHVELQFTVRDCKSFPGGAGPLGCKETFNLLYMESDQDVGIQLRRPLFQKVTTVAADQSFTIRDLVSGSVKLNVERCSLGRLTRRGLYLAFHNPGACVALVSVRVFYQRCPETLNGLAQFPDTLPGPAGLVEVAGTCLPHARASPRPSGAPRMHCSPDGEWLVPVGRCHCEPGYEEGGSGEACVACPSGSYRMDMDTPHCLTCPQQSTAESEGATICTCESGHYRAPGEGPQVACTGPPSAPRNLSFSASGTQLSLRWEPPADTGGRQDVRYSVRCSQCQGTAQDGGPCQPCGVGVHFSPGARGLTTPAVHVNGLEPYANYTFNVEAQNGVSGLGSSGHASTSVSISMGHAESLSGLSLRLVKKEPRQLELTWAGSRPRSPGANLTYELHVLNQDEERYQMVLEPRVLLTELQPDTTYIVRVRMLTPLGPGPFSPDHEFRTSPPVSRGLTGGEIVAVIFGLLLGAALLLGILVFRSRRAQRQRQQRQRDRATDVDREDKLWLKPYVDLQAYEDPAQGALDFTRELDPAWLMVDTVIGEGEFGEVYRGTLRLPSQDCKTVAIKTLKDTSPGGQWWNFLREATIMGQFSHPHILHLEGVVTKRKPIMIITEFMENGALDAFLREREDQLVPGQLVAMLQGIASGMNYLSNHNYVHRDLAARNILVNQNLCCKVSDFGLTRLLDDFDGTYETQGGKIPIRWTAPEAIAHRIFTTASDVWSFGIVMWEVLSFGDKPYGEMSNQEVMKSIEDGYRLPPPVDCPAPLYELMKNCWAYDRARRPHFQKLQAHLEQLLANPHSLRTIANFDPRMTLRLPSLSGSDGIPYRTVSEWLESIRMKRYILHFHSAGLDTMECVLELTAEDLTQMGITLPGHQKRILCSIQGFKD
Chain of Serine/threonine-protein kinase B-raf (Homo sapiens) (P15056 whole entry): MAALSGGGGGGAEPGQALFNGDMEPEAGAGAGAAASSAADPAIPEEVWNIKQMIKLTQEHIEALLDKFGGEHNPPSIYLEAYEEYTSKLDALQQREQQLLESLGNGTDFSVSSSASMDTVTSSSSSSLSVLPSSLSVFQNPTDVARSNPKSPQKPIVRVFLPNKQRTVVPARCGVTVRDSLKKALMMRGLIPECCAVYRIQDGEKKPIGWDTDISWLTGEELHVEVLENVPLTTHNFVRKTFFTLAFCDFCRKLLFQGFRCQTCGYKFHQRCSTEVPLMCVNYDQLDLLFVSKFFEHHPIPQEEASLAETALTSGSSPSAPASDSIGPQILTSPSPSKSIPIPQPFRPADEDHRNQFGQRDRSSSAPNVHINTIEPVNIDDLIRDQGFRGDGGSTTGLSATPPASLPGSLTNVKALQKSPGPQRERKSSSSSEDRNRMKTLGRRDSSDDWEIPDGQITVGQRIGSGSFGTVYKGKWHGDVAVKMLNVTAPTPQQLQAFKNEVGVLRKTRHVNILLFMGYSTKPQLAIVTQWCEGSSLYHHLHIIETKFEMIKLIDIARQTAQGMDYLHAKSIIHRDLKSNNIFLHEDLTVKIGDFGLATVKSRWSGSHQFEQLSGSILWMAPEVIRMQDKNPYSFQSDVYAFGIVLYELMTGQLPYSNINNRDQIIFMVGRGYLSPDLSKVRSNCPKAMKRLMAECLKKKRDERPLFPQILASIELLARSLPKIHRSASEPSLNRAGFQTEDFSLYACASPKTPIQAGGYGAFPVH
Chain of Mitogen-activated protein kinase 11 (Homo sapiens) (Q15759 whole entry): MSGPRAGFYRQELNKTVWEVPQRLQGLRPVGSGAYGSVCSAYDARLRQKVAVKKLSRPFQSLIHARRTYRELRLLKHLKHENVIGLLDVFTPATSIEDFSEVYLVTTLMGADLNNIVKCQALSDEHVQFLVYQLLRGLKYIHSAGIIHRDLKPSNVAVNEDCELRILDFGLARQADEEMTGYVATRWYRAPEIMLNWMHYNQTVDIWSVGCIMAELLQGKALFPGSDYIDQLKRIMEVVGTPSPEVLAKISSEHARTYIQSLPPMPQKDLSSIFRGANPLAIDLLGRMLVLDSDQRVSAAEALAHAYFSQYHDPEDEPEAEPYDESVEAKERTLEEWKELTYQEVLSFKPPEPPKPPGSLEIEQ

Regarding `CNC(=O)c1cc(Oc2ccc(NC(=O)c3nc(C(F)(F)F)sc3-c3ccc(F)cc3)cc2)ccn1`, the inhibition in experiment [1] turned out to be 32%; in [2], 55%; in experiment [3], 53%; in experiment [4], 37%; in [5], 49%; in [6], 23%. In addition, the figures for the inhibition in experiment [7] and in [8] were 25% and 43%, respectively.
In experiment [5], `CNC(=O)c1cc(Oc2ccc(NC(=O)c3nc(SC)oc3-c3ccc(F)cc3)cc2F)ccn1` displayed an inhibition of 41%.
Consider `CNC(=O)c1cc(Oc2ccc(NC(=O)c3nc(NC)sc3-c3ccc(F)cc3)cc2)ccn1`, for which the figures for the inhibition in experiment [9] and in experiment [10] were 63% and 44%, respectively.
As for `CNC(=O)c1cc(Oc2ccc(NC(=O)c3nc(SC)n(CCN(C)C)c3-c3ccc(F)cc3)cc2)ccn1`, the inhibition was 44% in experiment [11], 64% in experiment [12], 44% in experiment [13] and 65% in experiment [8].
Regarding `CSc1nc(C(=O)Nc2ccc(Oc3cc4cnn(C)c4cc3Br)cc2)c(-c2ccc(F)cc2)o1`, the inhibition is 14% in experiment [14]; 21% in [15]; 23% in experiment [16]; 21% in [17]; 14% in experiment [18]; 37% in experiment [4]. Also, the inhibition came to 28% in experiment [19]; 21% in experiment [20]; 19% in experiment [21]; 25% in experiment [22]; 14% in [23].
In the case of `CNC(=O)c1cc(Oc2ccc(NC(=O)c3nc(SC)[nH]c3-c3ccc(F)cc3)cc2)ccn1`, the inhibition came to 94% in experiment [2]; 95% in [3]; 91% in [5]; 90% in [24]; 93% in experiment [25]. For the same molecule, the inhibition result in the experiment with MDA-MB-231 was “Active”.
Turning to `CNC(=O)c1cc(Oc2ccc(NC(=O)c3nc(S(C)(=O)=O)sc3-c3ccc(F)cc3)cc2)ccn1`, the inhibition in [3] amounted to 27%; in [5], 60%; in [9] it was 11%; in experiment [8], 39%. Further, the inhibition entry in the experiment with MDA-MB-231 is “Active”.
For the molecule `CNC(=O)c1cc(Oc2ccc(NC(=O)c3nc(SC)oc3-c3ccc(F)cc3)cc2)ccn1`, the inhibition worked out at 40% in experiment [1], 40% in experiment [17] and 55% in experiment [5]. In addition, the inhibition result with MDA-MB-231 was “Active”.
Take `CNC(=O)c1cc(Oc2ccc(NC(=O)c3n[nH]nc3-c3ccc(F)cc3)cc2)ccn1`: the inhibition is 54% in [26]; 25% in [3]; 25% in [18]; 32% in experiment [24]; 28% in [21]; 57% in experiment [9]. This molecule gave an inhibition in [8] of 47%.
